In patent US10058550B2, “Methods of treating heart failure” (priority 2015, dated 2018):
pEC50: −log10 of the molar value.

target: human APJ receptor (Homo sapiens (Human), UniProt P35414); test: biochemical; format: biochemical; settings: read-out: Activity hAPJ SPA EC50 IP
How it was run: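 Membranes from CHO cells stably expressing cloned human APJ were incubated with WGA SPA beads in 20 mM HEPES pH 7.5, 5 mM MgCl2, 0.1% BSA, 200 mM NaCl and 3 μM GDP. Reaction started with 0.2 nM [35S]GTPγS ± ligands, 90 min at RT. EC50 obtained by non-linear regression as mean of independent experiments.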

human APJ receptor, sequence (P35414 whole entry): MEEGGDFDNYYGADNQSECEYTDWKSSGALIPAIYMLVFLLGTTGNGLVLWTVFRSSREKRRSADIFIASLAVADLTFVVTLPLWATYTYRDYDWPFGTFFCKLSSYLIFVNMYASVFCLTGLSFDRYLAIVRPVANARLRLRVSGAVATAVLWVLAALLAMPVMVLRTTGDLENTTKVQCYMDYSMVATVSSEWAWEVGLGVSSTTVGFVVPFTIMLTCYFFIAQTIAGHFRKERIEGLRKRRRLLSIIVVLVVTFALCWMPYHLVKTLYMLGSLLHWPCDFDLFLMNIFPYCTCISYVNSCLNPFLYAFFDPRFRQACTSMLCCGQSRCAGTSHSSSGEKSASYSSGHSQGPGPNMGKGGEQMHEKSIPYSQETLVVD

| SMILES | pEC50 |
| --- | --- |
| COc1cccc(OC)c1-n1c(NS(=O)(=O)[C@H](C)[C@H](O)c2ncc(F)cn2)nnc1-c1cncc(C)c1 (single isomer, unassigned) [Example 358.0, (1R,2R)—N-(4-(2,6-dimethoxyphenyl)-5-(5-methylpyridin-3-yl)-4H-1,2,4-triazol-3-yl)-1-(5-fluoropyrimidin-2-yl)-1-hydroxypropane-2-sulfonamide or (1S,2S)—N-(4-(2,6-dimethoxyphenyl)-5-(5-methylpyridin-3-yl)-4H-1,2,4-triazol-3-yl)-1-(5-fluoropyrimidin-2-yl)-1-hydroxypropane-2-sulfonamide] | 7.16 |
| COc1cccc(OC)c1-n1c(NS(=O)(=O)[C@H](C)[C@@H](OCCO)c2ncc(C)cn2)nnc1-c1cncc(C)c1 (single isomer, unassigned) [Example 394.0, (1S,2R)—N-(4-(2,6-dimethoxyphenyl)-5-(5-methylpyridin-3-yl)-4H-1,2,4-triazol-3-yl)-1-(2-hydroxyethoxy)-1-(5-methylpyrimidin-2-yl)propane-2-sulfonamide or (1R,2S)—N-(4-(2,6-dimethoxyphenyl)-5-(5-methylpyridin-3-yl)-4H-1,2,4-triazol-3-yl)-1-(2-hydroxyethoxy)-1-(5-methylpyrimidin-2-yl)propane-2-sulfonamide] | 7.92 |
| COc1cccc(OC)c1-n1c(NS(=O)(=O)[C@H](C)[C@@H](OCCO)c2ncc(C)cn2)nnc1-c1cncc(C)c1 (single isomer, unassigned) [Example 395.0, (1S,2R)—N-(4-(2,6-dimethoxyphenyl)-5-(5-methylpyridin-3-yl)-4H-1,2,4-triazol-3-yl)-1-(2-hydroxyethoxy)-1-(5-methylpyrimidin-2-yl)propane-2-sulfonamide or (1R,2S)—N-(4-(2,6-dimethoxyphenyl)-5-(5-methylpyridin-3-yl)-4H-1,2,4-triazol-3-yl)-1-(2-hydroxyethoxy)-1-(5-methylpyrimidin-2-yl)propane-2-sulfonamide] | 9.96 |
| COc1cccc(OC)c1-n1c(NS(=O)(=O)[C@H](C)[C@@H](OC[C@H](C)O)c2ncc(C)cn2)nnc1-c1cncc(C)c1 (single isomer, unassigned) [Example 400.0] | 7.77 |
| COc1cccc(OC)c1-n1c(NS(=O)(=O)[C@H](C)[C@@H](OC[C@H](C)O)c2ncc(C)cn2)nnc1-c1cncc(C)c1 (single isomer, unassigned) [Example 401.0] | 7.68 |
| COc1cccc(OC)c1-n1c(NS(=O)(=O)[C@H](C)[C@@H](OC[C@H](C)O)c2ncc(C)cn2)nnc1-c1cncc(C)c1 (single isomer, unassigned) [Example 402.0] | 9.07 |
| COc1cccc(OC)c1-n1c(NS(=O)(=O)[C@H](C)[C@@H](OC[C@H](C)O)c2ncc(C)cn2)nnc1-c1cncc(C)c1 (single isomer, unassigned) [Example 403.0] | 9.68 |
| COc1cccc(OC)c1-n1c(NS(=O)(=O)[C@@H](C)[C@@H](OCCO)c2ncc(C)cn2)nnc1-c1cncc(C)c1 (single isomer, unassigned) [Example 408.0, (1S,2S)—N-(4-(2,6-dimethoxyphenyl)-5-(5-methylpyridin-3-yl)-4H-1,2,4-triazol-3-yl)-1-(2-hydroxyethoxy)-1-(5-methylpyrimidin-2-yl)propane-2-sulfonamide or (1R,2R)—N-(4-(2,6-dimethoxyphenyl)-5-(5-methylpyridin-3-yl)-4H-1,2,4-triazol-3-yl)-1-(2-hydroxyethoxy)-1-(5-methylpyrimidin-2-yl)propane-2-sulfonamide] | 9.06 |
| COc1cccc(OC)c1-n1c(NS(=O)(=O)[C@@H](C)[C@@H](OCCO)c2ncc(C)cn2)nnc1-c1cncc(C)c1 (single isomer, unassigned) [Example 409.0, (1S,2S)—N-(4-(2,6-dimethoxyphenyl)-5-(5-methylpyridin-3-yl)-4H-1,2,4-triazol-3-yl)-1-(2-hydroxyethoxy)-1-(5-methylpyrimidin-2-yl)propane-2-sulfonamide or (1R,2R)—N-(4-(2,6-dimethoxyphenyl)-5-(5-methylpyridin-3-yl)-4H-1,2,4-triazol-3-yl)-1-(2-hydroxyethoxy)-1-(5-methylpyrimidin-2-yl)propane-2-sulfonamide] | 7.54 |
| COc1cccc(-c2nnc(NS(=O)(=O)[C@H](C)[C@@H](OCCO)c3ncc(C)cn3)n2-c2c(OC)cccc2OC)n1 (single isomer, unassigned) [Example 415.0, (1S,2R)—N-(4-(2,6-dimethoxyphenyl)-5-(6-methoxypyridin-2-yl)-4H-1,2,4-triazol-3-yl)-1-(2-hydroxyethoxy)-1-(5-methylpyrimidin-2-yl)propane-2-sulfonamide or (1R,2S)—N-(4-(2,6-dimethoxyphenyl)-5-(6-methoxypyridin-2-yl)-4H-1,2,4-triazol-3-yl)-1-(2-hydroxyethoxy)-1-(5-methylpyrimidin-2-yl)propane-2-sulfonamide] | 8.05 |
| COc1cccc(-c2nnc(NS(=O)(=O)[C@H](C)[C@@H](OCCO)c3ncc(C)cn3)n2-c2c(OC)cccc2OC)n1 (single isomer, unassigned) [Example 416.0, (1S,2R)—N-(4-(2,6-dimethoxyphenyl)-5-(6-methoxypyridin-2-yl)-4H-1,2,4-triazol-3-yl)-1-(2-hydroxyethoxy)-1-(5-methylpyrimidin-2-yl)propane-2-sulfonamide or (1R,2S)—N-(4-(2,6-dimethoxyphenyl)-5-(6-methoxypyridin-2-yl)-4H-1,2,4-triazol-3-yl)-1-(2-hydroxyethoxy)-1-(5-methylpyrimidin-2-yl)propane-2-sulfonamide] | 9.59 |
| COc1cccc(-c2nnc(NS(=O)(=O)[C@@H](C)[C@H](O)C(C)(C)C)n2-c2c(OC)cccc2OC)n1 (single isomer, unassigned) [Example 434.0, (2S,3R)—N-(4-(2,6-dimethoxyphenyl)-5-(6-methoxy-2-pyridinyl)-4H-1,2,4-triazol-3-yl)-3-hydroxy-4,4-dimethyl-2-pentanesulfonamide or (2R,3S)—N-(4-(2,6-dimethoxyphenyl)-5-(6-methoxy-2-pyridinyl)-4H-1,2,4-triazol-3-yl)-3-hydroxy-4,4-dimethyl-2-pentanesulfonamide] | 6.92 |
| COc1cccc(-c2nnc(NS(=O)(=O)[C@@H](C)[C@@H](O)C(C)(C)C)n2-c2c(OC)cccc2OC)n1 (single isomer, unassigned) [Example 435.0, (2S,3S)—N-(4-(2,6-dimethoxyphenyl)-5-(6-methoxy-2-pyridinyl)-4H-1,2,4-triazol-3-yl)-3-hydroxy-4,4-dimethyl-2-pentanesulfonamide or (2R,3R)—N-(4-(2,6-dimethoxyphenyl)-5-(6-methoxy-2-pyridinyl)-4H-1,2,4-triazol-3-yl)-3-hydroxy-4,4-dimethyl-2-pentanesulfonamide] | 7.62 |
| COc1cccc(-c2nnc(NS(=O)(=O)[C@@H](C)[C@@H](O)C(C)(C)C)n2-c2c(OC)cccc2OC)n1 (single isomer, unassigned) [Example 436.0, (2S,3S)—N-(4-(2,6-dimethoxyphenyl)-5-(6-methoxy-2-pyridinyl)-4H-1,2,4-triazol-3-yl)-3-hydroxy-4,4-dimethyl-2-pentanesulfonamide or (2R,3R)—N-(4-(2,6-dimethoxyphenyl)-5-(6-methoxy-2-pyridinyl)-4H-1,2,4-triazol-3-yl)-3-hydroxy-4,4-dimethyl-2-pentanesulfonamide] | 7.00 |
| COc1cccc(-c2nnc(NS(=O)(=O)[C@@H](C)[C@H](O)C(C)(C)C)n2-c2c(OC)cccc2OC)n1 (single isomer, unassigned) [Example 437.0, (2S,3R)—N-(4-(2,6-dimethoxyphenyl)-5-(6-methoxy-2-pyridinyl)-4H-1,2,4-triazol-3-yl)-3-hydroxy-4,4-dimethyl-2-pentanesulfonamide or (2R,3S)—N-(4-(2,6-dimethoxyphenyl)-5-(6-methoxy-2-pyridinyl)-4H-1,2,4-triazol-3-yl)-3-hydroxy-4,4-dimethyl-2-pentanesulfonamide] | 7.51 |
| COc1cccc(-c2nnc(NS(=O)(=O)[C@@H](C)[C@H](O)C3CC3)n2-c2c(OC)cccc2OC)n1 (single isomer, unassigned) [Example 439.0, (1R,2S)-1-cyclopropyl-N-(4-(2,6-dimethoxyphenyl)-5-(6-methoxy-2-pyridinyl)-4H-1,2,4-triazol-3-yl)-1-hydroxy-2-propanesulfonamide or (1S,2R)-1-cyclopropyl-N-(4-(2,6-dimethoxyphenyl)-5-(6-methoxy-2-pyridinyl)-4H-1,2,4-triazol-3-yl)-1-hydroxy-2-propanesulfonamide] | 6.96 |
| COc1cccc(OC)c1-n1c(NS(=O)(=O)C[C@H](O)c2ccc(Cl)cc2S(C)(=O)=O)nnc1-c1cncc(C)c1 (single isomer, unassigned) [Example 458.0, (2R)-2-(4-chloro-2-(methylsulfonyl)phenyl)-N-(4-(2,6-dimethoxyphenyl)-5-(5-methyl-3-pyridinyl)-4H-1,2,4-triazol-3-yl)-2-hydroxyethanesulfonamide or (2S)-2-(4-chloro-2-(methylsulfonyl)phenyl)-N-(4-(2,6-dimethoxyphenyl)-5-(5-methyl-3-pyridinyl)-4H-1,2,4-triazol-3-yl)-2-hydroxyethanesulfonamide] | 9.80 |
| COc1cccc(-c2nnc(NS(=O)(=O)[C@@H](C)[C@H](OC)c3ccc(C#N)cc3C#N)n2-c2c(OC)cccc2OC)n1 (single isomer, unassigned) [Example 474.0, (1R,2S)-1-(2,4-dicyanophenyl)-N-(4-(2,6-dimethoxyphenyl)-5-(6-methoxy-2-pyridinyl)-4H-1,2,4-triazol-3-yl)-1-methoxy-2-propanesulfonamide or (1S,2R)-1-(2,4-dicyanophenyl)-N-(4-(2,6-dimethoxyphenyl)-5-(6-methoxy-2-pyridinyl)-4H-1,2,4-triazol-3-yl)-1-methoxy-2-propanesulfonamide] | 9.46 |
